Reference: ChEMBL document CHEMBL6103592, “Discovery of novel thiazole-pleuromutilin derivatives with potent antibacterial activity” (Eur J Med Chem, 2025)
Converted amounts (≈) assume the structure as drawn. The source made the active and inactive calls. No cut-off for these calls is given here.

What was measured:
Staphylococcus aureus [1] = experiment: Antibacterial activity against methicillin-resistant Staphylococcus aureus ATCC 43300 assessed as inhibition of visible bacterial growth incubated for 24 hrs by CLSI based broth microdilution method; format: functional
Staphylococcus aureus [2] = experiment: Antibacterial activity against Staphylococcus aureus ATCC 25923 assessed as inhibition of visible bacterial growth incubated for 24 hrs by CLSI based broth microdilution method; format: functional
Enterococcus faecalis = experiment: Antibacterial activity against Enterococcus faecalis assessed as inhibition of visible bacterial growth incubated for 24 hrs by CLSI based broth microdilution method; format: functional
Escherichia coli = experiment: Antibacterial activity against Escherichia coli ATCC 25922 assessed as inhibition of visible bacterial growth incubated for 24 hrs by CLSI based broth microdilution method; format: functional
Streptococcus agalactiae = experiment: Antibacterial activity against Streptococcus agalactiae assessed as inhibition of visible bacterial growth incubated for 24 hrs by CLSI based broth microdilution method; format: functional
Mycoplasma = experiment: Antibacterial activity against Mycoplasma F3 assessed as inhibition of visible bacterial growth incubated for 24 hrs by CLSI based broth microdilution method; format: functional
Staphylococcus aureus [3] = experiment: Bactericidal activity against methicillin-resistant Staphylococcus aureus ATCC 43300 at 1 times MIC incubated upto 24 hrs by time-kill assay; format: functional, organism-based
Staphylococcus aureus [4] = experiment: Bactericidal activity against methicillin-resistant Staphylococcus aureus ATCC 43300 assessed as increase in colony forming unit count at 1 times MIC incubated after 8 hrs by time-kill assay; format: functional, organism-based
Staphylococcus aureus [5] = experiment: Antibacterial activity against methicillin-resistant Staphylococcus aureus ATCC 43300 assessed as post antibiotic effect at 1 times MIC measured after 1 hr; format: functional
Staphylococcus aureus [6] = experiment: Antibacterial activity against methicillin-resistant Staphylococcus aureus ATCC 43300 assessed as post antibiotic effect at 2 times MIC measured after 1 hr; format: functional
Staphylococcus aureus [7] = experiment: Antibacterial activity against methicillin-resistant Staphylococcus aureus ATCC 43300 assessed as post antibiotic effect at 4 times MIC measured after 1 hr; format: functional
Staphylococcus aureus [8] = experiment: Antibacterial activity against methicillin-resistant Staphylococcus aureus ATCC 43300 assessed as post antibiotic effect at 8 times MIC measured after 1 hr; format: functional
Staphylococcus aureus [9] = experiment: Drug resistance, ratio of MIC for methicillin-resistant Staphylococcus aureus ATCC 43300 after 21 passages to MIC for methicillin-resistant Staphylococcus aureus ATCC 43300 during first exposure; format: functional
Staphylococcus aureus [10] = experiment: Antibacterial activity against methicillin resistant Staphylococcus aureus; format: functional
Staphylococcus aureus [11] = experiment: Antibacterial activity against methicillin-resistant Staphylococcus aureus ATCC 43300 assessed as reduction in bacterial proteins level at 0.5 to 2 microg/ml measured for 4 hrs; format: functional, organism-based; conditions: dose 0.5-2 µg/ml
Staphylococcus aureus [12] = experiment: (§1) Antibacterial efficacy against methicillin-resistant Staphylococcus aureus ATCC 43300 infected in cyclophosphamide-induced neutropenic systemic infection Kunming mouse model assessed as reduction in bacterial load in kidney at 20 mg/kg, iv pretreated with cyclophosphamide for 1 hr followed by compound addition and measured after 5 days; format: functional, organism-based; conditions: time 5.0 day
Staphylococcus aureus [13] = experiment: as §1, with “alveolar epithelial cell necrosis” for “reduction in bacterial load in kidney”, “days by light microscopic analysis” for “days”; format: functional, organism-based; conditions: time 5.0 day
Staphylococcus aureus [14] = experiment: as §1, with “lung” for “kidney”; format: functional; conditions: time 5 day
Staphylococcus aureus [15] = experiment: as §1, with “liver” for “kidney”; format: functional; conditions: time 5 day
[16] = Cytotoxicity against human HEK293T cells assessed as survival rate at 200 micromol/L incubated for 24 hrs by CCK-8 assay relative to control; format: toxicity, cell-based, HEK-293T; conditions: dose 200 µmol/L, read-out: Survival
HepG2 [17] = experiment: Cytotoxicity against human HepG2 cells assessed as survival rate at 200 micromol/L incubated for 24 hrs by CCK-8 assay relative to control; format: functional; conditions: HepG2, 24 h, dose 200 µmol/L, read-out: Survival
[18] = Cytotoxicity against human HEK293T cells assessed as survival rate incubated for 24 hrs by CCK-8 assay; format: toxicity, cell-based, HEK-293T
HepG2 [19] = experiment: Cytotoxicity against human HepG2 cells assessed as survival rate incubated for 24 hrs by CCK-8 assay; format: functional, cell-based; conditions: HepG2, 24 h

C=C[C@]1(C)C[C@@H](OC(=O)CSc2nc(OC(=O)C3CC3)cs2)[C@]2(C)[C@H](C)CC[C@]3(CCC(=O)[C@H]32)[C@@H](C)[C@@H]1O
MIC (Staphylococcus aureus [1]): 0.5 µg/mL (≈ 0.89 µM) | MIC (Staphylococcus aureus [2]): 1 µg/mL (≈ 1.78 µM) | MIC (Enterococcus faecalis): > 32 µg/mL | MIC (Escherichia coli): > 32 µg/mL | MIC (Streptococcus agalactiae): 0.063 µg/mL (≈ 0.112 µM) | MIC (Mycoplasma): 0.25 µg/mL (≈ 0.445 µM)

C=C[C@]1(C)C[C@@H](OC(=O)CSCCN(CC)CC)[C@]2(C)[C@H](C)CC[C@]3(CCC(=O)[C@H]32)[C@@H](C)[C@@H]1O [TIAMULIN]
MIC (Staphylococcus aureus [1]): 0.25 µg/mL (≈ 0.506 µM) | MIC (Staphylococcus aureus [2]): 0.25 µg/mL (≈ 0.506 µM) | MIC (Enterococcus faecalis): > 32 µg/mL | MIC (Escherichia coli): > 32 µg/mL | MIC (Streptococcus agalactiae): 0.125 µg/mL (≈ 0.253 µM) | MIC (Mycoplasma): 0.008 µg/mL (≈ 0.0162 µM) | Activity (Staphylococcus aureus [3]): Active | Activity (Staphylococcus aureus [4]): Active | PAE (Staphylococcus aureus [5]): 0.42 h | PAE (Staphylococcus aureus [6]): 0.91 h | PAE (Staphylococcus aureus [7]): 1.54 h | PAE (Staphylococcus aureus [8]): 2.2 h | Ratio (Staphylococcus aureus [9]): 64 | MIC (Staphylococcus aureus [10]): 0.5 µg/mL (≈ 1.01 µM) | Activity (Staphylococcus aureus [11]): Active | Activity (Staphylococcus aureus [12]): inactive | Activity (Staphylococcus aureus [13]): Active

C=C[C@]1(C)C[C@@H](OC(=O)CSc2nc(OC(=O)CCCCCCC)cs2)[C@]2(C)[C@H](C)CC[C@]3(CCC(=O)[C@H]32)[C@@H](C)[C@@H]1O
MIC (Staphylococcus aureus [1]): 2 µg/mL (≈ 3.23 µM) | MIC (Staphylococcus aureus [2]): 2 µg/mL (≈ 3.23 µM) | MIC (Enterococcus faecalis): > 32 µg/mL | MIC (Escherichia coli): > 32 µg/mL | MIC (Streptococcus agalactiae): 0.125 µg/mL (≈ 0.202 µM) | MIC (Mycoplasma): 0.5 µg/mL (≈ 0.807 µM)

C=C[C@]1(C)C[C@@H](OC(=O)CSC2=NC(=O)CS2)[C@]2(C)[C@H](C)CC[C@]3(CCC(=O)[C@H]32)[C@@H](C)[C@@H]1O
MIC (Staphylococcus aureus [1]): 1 µg/mL (≈ 2.03 µM) | MIC (Staphylococcus aureus [2]): 0.5 µg/mL (≈ 1.01 µM) | MIC (Enterococcus faecalis): > 32 µg/mL | MIC (Escherichia coli): > 32 µg/mL | MIC (Streptococcus agalactiae): 0.125 µg/mL (≈ 0.253 µM) | MIC (Mycoplasma): 0.5 µg/mL (≈ 1.01 µM)

C=C[C@]1(C)C[C@@H](OC(=O)CSC(C)(C)CNC(=O)[C@H](N)C(C)C)[C@]2(C)[C@H](C)CC[C@]3(CCC(=O)[C@H]32)[C@@H](C)[C@@H]1O [VALNEMULIN]
Activity (Staphylococcus aureus [14]): 0.98 log10CFU | Activity (Staphylococcus aureus [15]): 0.71 log10CFU | Activity (Staphylococcus aureus [12]): inactive | Activity (Staphylococcus aureus [13]): inactive | viability at 24 h, 200 µM [16]: 16% | viability at 200 µM (HepG2 [17]): 12% | IC50 at 24 h [18]: 52 µM | IC50 (HepG2 [19]): 102 µM

C=C[C@]1(C)C[C@@H](OC(=O)CSc2nc(OC(=O)c3cccs3)cs2)[C@]2(C)[C@H](C)CC[C@]3(CCC(=O)[C@H]32)[C@@H](C)[C@@H]1O
MIC (Staphylococcus aureus [1]): 1 µg/mL (≈ 1.66 µM) | MIC (Staphylococcus aureus [2]): 0.5 µg/mL (≈ 0.828 µM) | MIC (Enterococcus faecalis): > 32 µg/mL | MIC (Escherichia coli): > 32 µg/mL | MIC (Streptococcus agalactiae): 0.25 µg/mL (≈ 0.414 µM) | MIC (Mycoplasma): 0.25 µg/mL (≈ 0.414 µM)

C=C[C@]1(C)C[C@@H](OC(=O)CSc2nc(OC(=O)c3ccccc3C)cs2)[C@]2(C)[C@H](C)CC[C@]3(CCC(=O)[C@H]32)[C@@H](C)[C@@H]1O
MIC (Staphylococcus aureus [1]): 1 µg/mL (≈ 1.63 µM) | MIC (Staphylococcus aureus [2]): 2 µg/mL (≈ 3.27 µM) | MIC (Enterococcus faecalis): > 32 µg/mL | MIC (Escherichia coli): > 32 µg/mL | MIC (Streptococcus agalactiae): 0.063 µg/mL (≈ 0.103 µM) | MIC (Mycoplasma): 1 µg/mL (≈ 1.63 µM)

C=C[C@]1(C)C[C@@H](OC(=O)CSc2nc(OC(=O)c3ccc(F)cc3)cs2)[C@]2(C)[C@H](C)CC[C@]3(CCC(=O)[C@H]32)[C@@H](C)[C@@H]1O
MIC (Staphylococcus aureus [1]): 0.5 µg/mL (≈ 0.812 µM) | MIC (Staphylococcus aureus [2]): 0.5 µg/mL (≈ 0.812 µM) | MIC (Enterococcus faecalis): > 32 µg/mL | MIC (Escherichia coli): > 32 µg/mL | MIC (Streptococcus agalactiae): 0.125 µg/mL (≈ 0.203 µM) | MIC (Mycoplasma): 0.25 µg/mL (≈ 0.406 µM)

C=C[C@]1(C)C[C@@H](OC(=O)CSc2nc(OC(=O)c3cccc(Cl)c3)cs2)[C@]2(C)[C@H](C)CC[C@]3(CCC(=O)[C@H]32)[C@@H](C)[C@@H]1O
MIC (Staphylococcus aureus [1]): 1 µg/mL (≈ 1.58 µM) | MIC (Staphylococcus aureus [2]): 0.25 µg/mL (≈ 0.395 µM) | MIC (Enterococcus faecalis): > 32 µg/mL | MIC (Escherichia coli): > 32 µg/mL | MIC (Streptococcus agalactiae): 0.063 µg/mL (≈ 0.0996 µM) | MIC (Mycoplasma): 0.25 µg/mL (≈ 0.395 µM)
